Literature values in patent publication US20170000414A1, “Use of Blood Flow Parameters to Monitor or Control the Dosing of Anti-Platelet Agents” (RHEOVECTOR, LLC, priority 2014, published 2017).

Columns and labels:
[1] = aspirin 81 mg; healthy individuals
[2] = 18,624 patients having prior acute coronary syndrome

## CC(=O)Oc1ccccc1C(=O)O [Aspirin, acetylsalicylic acid]
[1]
  effect on blood viscosity: no significant effect

## CCCSc1nc(N[C@@H]2C[C@H]2c2ccc(F)c(F)c2)c2nnn([C@@H]3C[C@H](OCCO)[C@@H](O)[C@H]3O)c2n1 [Ticagrelor]
[2]
  rate of cardiovascular disease (CVD) events and death compared with clopidogrel: reduce significantly

## COC(=O)[C@H](c1ccccc1Cl)N1CCc2sccc2C1 [clopidogrel]
Clopidogrel 75 mg, 19,185 patients with atherosclerosis (symptomatic PAD, recent ischemic stroke or MI)
  reducing CVD events or death, compared with aspirin 325 mg: more effective
Group entering the trial with symptomatic PAD, p=0.0028
  relative risk reduction: 23.8%
Patients who entered the trial with an ischemic stroke or MI
  reduction in MI, stroke or cardiovascular death rates: no reduction
